Assay results taken from PMC9317316, “Synthesis and Evaluation of Some New 4H-Pyran Derivatives as Antioxidant, Antibacterial and Anti-HCT-116 Cells of CRC, with Molecular Docking, Antiproliferative, Apoptotic and ADME Investigations” (Pharmaceuticals, 2022).

Tests used:
[1] = system: S. enteric (ATCC 43972); assay: Antibacterial agar diffusion method (inhibition zone); type: cell-based
In short: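 Agar diffusion: compounds applied to top agar seeded with the strain, inhibition zone measured; ampicillin (10 µg/well) as reference. Viability: 2 ×10^7 CFU/mL in BHI shaken with compound 60 min at 37 °C, serially diluted, plated, colonies counted after 24 h at 37 °C; IC50 from residual CFU, mean of three.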

[2] = target: T1, CDK2/CyclinA2 enzyme (Homo sapiens, UniProt P24941); assay: In vitro CDK2 inhibitory assay (Kinase-Glo); type: biochemical; conditions: for IC50: deduced from curves over 0.01-10 µM, read-out: IC50 against CDK2
T1 construct: purchased BPS Biosciences, San Diego, CA, USA 79599
Method: To further substantiate the promising results of the docking analyses of pyrans 4d and 4K in the ATP active site of CDK2, their in vitro potencies to inhibit the enzyme activity were evaluated over a concentration range of 0.01−10 µM.
CDK-2 inhibition activity of the studied compounds 4d and 4k was evaluated using a commercial CDK2 […] (cat. no.: 79599; BPS Biosciences, San Diego, CA, USA) following the manufacturer’s instructions. Briefly, different concentrations of each compound or the positive control BMS-265246 (0.01, 0. 1, 1 or 10 µM) were incubated with 20 µL of diluted CDK2/CyclinA2 enzyme at 30 °C for 45 min. Following the addition of 50 µL Kinase-Glo® Reagent to each well, the plate was incubated at room temperature for 15 min. Then, the luminescence signal was measured using the microplate reader. The CDK2 inhibitory activity was expressed as inhibition percentage, which was determined by comparison with a control experiment for comparative purposes. IC50 values were deduced from the curves. All measurements were performed in triplicate.

[3] = system: caspase-3 gene in HCT-116 cells; assay: qRT-PCR expression profile of the caspase-3 gene in HCT-116 cells; type: cell-based, human; parameters: dose or concentration left out as unconfirmed; conditions: 24 h, as compared to the negative control
Description: Normally, apoptosis, or programmed cell death, is considered as a safeguard mechanism for managing stress and maintaining tissue homeostasis. It proceeds through a series of well-ordered biochemical cascades of events, which are regulated by a network of proteins. However, due to genetic and epigenetic mutations, deregulation of these proteins occurs, which results in evasion of apoptosis. This oncogenic transformation is a hallmark of human cancer, and it contributes to other tumorigenic events, including uncontrolled growth, accumulation of further genetic mutations, tumor angiogenesis and metastasis and chemotherapeutic resistance. Therefore, reinitiating selective cancer cell death is a fundamental goal in anticancer drug development. Research in cancer biology has provided fundamental insights into the apoptotic pathways and their deregulation in colon cancer. Moreover, it has identified the molecular targets for reinitiating selective tumor cell death, including antiapoptotic Bcl-2 family proteins, apoptosis inhibitors and activators of the TRAIL death receptor signaling pathway, as well as other apoptotic markers, such as caspases. Among the caspases, which play critical roles in apoptosis, are the initiators, including caspases-8 or 9, and the effectors, including caspase-3 and caspase-7. […] Thus, the real-time quantitative PCR analyses of caspase-3-gene levels following treatment with compounds 4d and 4K at a concentration […] for 24 h, were performed to investigate their potential as proapoptotic agents. […]
Total RNA was extracted from each cell culture flask using the RNeasy extraction kit (RNeasy micro kit, cat. no. 74004). […] The amount of extracted RNA was quantified by estimating the absorbance at 260 nm. The purity of the RNA was checked by measuring the ratio of the absorbance at 260 and 280 nm, where a ratio ranging from 1.8 to 2.0 was taken to be pure. […]
Quantitative real-time PCR was carried out with the Thermal Cycler Rotorgene Real-Time System II (Rotorgene, South Korea) with the SYBR kit. […]

| Structure (SMILES) | IZ (mm) [1] | decrease of CDK2 activity ([2]; at 0.01 µM) | decrease of CDK2 activity ([2]; at 0.1 µM) | decrease of CDK2 activity ([2]; at 1 µM) | decrease of CDK2 activity ([2]; at 10 µM) | IC50 [2] | caspase-3 gene transcription level, fold increase [3] |
| --- | --- | --- | --- | --- | --- | --- | --- |
| COc1cc(C2C(C#N)=C(N)OC(C)=C2C(=O)OCc2ccccc2)cc(OC)c1OC (stereo not shown) [4d, 6-Amino-5-cyano-2-methyl-4-(3,4,5-trimethoxy-phenyl)-4H-pyran-3-carboxylic acid benzyl ester] | 7.0 ± 0.0 mm | 26.9% | 41.5% | 72.5% | 89% | 143 nM | 2.55 fold |
| CC1=C(C(=O)OCc2ccccc2)C(c2ccc(C#N)cc2)C(C#N)=C(N)O1 (stereo not shown) [4k, 6-Amino-5-cyano-4-(4-cyano-phenyl)-2-methyl-4H-pyran-3-carboxylic acid benzyl ester] | – | 21.9% | 42.4% | 66.3% | 83.6% | 214 nM | 4.62 fold |
